This passage reports inhibition and IC50 results from US5350748A, “3-thio or amino substituted-benzo[b]thiophene-2-carboxamides and 3-oxygen, thio, or amino substituted-benzofuran-2-carboxamides as inhibitors of cell adhesion” (Warner-Lambert Company, priority 1993, dated 1994).

This assay relates to human neutrophil adhesion to TNF-α-stimulated human umbilical vein endothelial cells (HUVEC). As to the kind of experiment: Modified method: inhibition of human neutrophil adhesion to TNF-α-stimulated human umbilical vein endothelial cells (calcein-labeled neutrophils). Type of assay: cell-based. Conditions: for inhibition at 33 µM / inhibition at 100 µM: neutrophils labeled with calcein, read-out: Adhesion ECA, % inhibition. The protocol: The 3-thiol, thioether, amino, alkylamino, or arylamino-benzo[b]thiophene-2-carboxamides and 3-alkoxy, aryloxy, thiol, thioether, amino, alkylamino, or arylamino-benzofuran-2-carboxamides have been shown in an in vitro assay to prevent the adhesion of neutrophils to human umbilical vein endothelial cells (HUVECS) stimulated with TNF-α. In this assay, HUVECS are stimulated with TNF-α for 4 hours, after which the cells are assayed for their ability to adhere to human neutrophils labeled with either ^51 Cr or calcein, a fluorescent dye. The details of this assay are described in the DETAILED DESCRIPTION.
Neutrophils were isolated from anticoagulant-treated venous blood obtained from healthy human volunteers according to the method of Ferrante and Thong [J. Immunol. Methods 24, 389-93 (1978)]. The cell preparations consisted of greater than 98% neutrophils.
Modified Method for Determining the Inhibition of Human Neutrophil Adhesion to TNF-α, IL-1α, and LPS Stimulated Human Umbilical Vein Endothelial Cells
The previous assay using ^51 Cr labeled human neutrophils has been modified. The neutrophils are now labeled with the fluorescent dye calcein. The current method allows for quantification of neutrophil adherence by fluorescence spectroscopy.
Second passage HUVEC (Clonetics Corporation, San Diego, Calif., CC-2617) were seeded into Coring (Corning glass works, Corning, N.Y.) 96-well cell culture plates at approximately 5×10^3 cells/well and grown to confluency in supplemented endothelial basal medium (EBM, MCDB-131, Clonetics, 10 ng/mL EGF, 1 μg/mL hydrocortisone, 0.4% bovine brain extract, 5% Fetal Bovine Serum). One day prior to running the assay, typically 3 days postseeding, the cultures were refed with 0.2 mL/well supplemented EBM (S-EBM).
Test compounds were prepared as 10 mL stock solutions at a concentration of 1.0 mM. The compounds were initially solubilized in 0.1 mL DMSO followed by the addition of 9.9 mL S-EBM. The drug preparations were then diluted in one step to a concentration of 66.6 μM or 200 μM. Solubilizations and dilutions were performed in polystyrene containers.
Recombinant human tumor necrosis factor-α (TNF, Genzyme, Boston, Mass., code TNF-H) was prepared at 400 U/mL in S-EBM. Stock TNF was prepared to 20,000 U/mL in Delbecco's phosphate-buffered saline (PBS, Gibco, Grand Island N.Y.) plus 0.1% BSA and stored at -70° C. HUVEC were washed one time with 0.2 mL warm unsupplemented EBM and then stimulated for 4hours at 37° C. with 200 U/mL TNF in the presence of 33.3 μM or 100 μM test compound. This was accomplished by adding 0.1 mL of 400 U/mL TNF and 0.1 mL 66.6 μM or 0.1 mL of 200 μM test compound. These additions were done slowly as to not disrupt the HUVEC monolayer. Each compound was tested in six wells. Unstimulated (vehicle control) and TNF-stimulated without test compound treatments were also run in each plate.
One hour prior to adding the neutrophils (isolated as previously described) to the HUVEC, neutrophils (5×10^6 /mL) were labeled for 30 minutes at 37° C. with 5 μM calcine-AM (Molecular Probes, Eugene, Oreg.) in Hanks' balanced salt solution plus 0.45% BSA. Stock calcein was prepared to 5mM in anhydrous DMSO and stored desiccated at -20° C. At the end of the incubation the cells were washed two times in cold HBSS and resuspended to a final concentration of 1×10^6 cells/mL in unsupplemented EBM.
At the end of the 4-hour stimulation and immediately prior to the addition of the neutrophils to the HUVEC monolayer, the plates were washed with 0.2 ml warm unsupplemented EBM to remove TNF and drug. Neutrophils (1×10^5 cells) were slowly added to each of the treated wells and incubated for 30 minutes at 37° C. At the end of the incubation the plates were washed two times with 0.2 mL warm unsupplemented EBM followed by a final addition of 0.1 mL for plate scanning.
The fluorescence was determined using a Millipore Cytofluor 2300 system (excitation=480, emission=530, sensitivity=4). […]

Usually inhibition stands for the share of the control response that was lost under treatment. Take `CC(C)Sc1c(C(N)=O)sc2ccc(OCc3ccccc3)cc12` [Example 17, 3-[(1-Methylethyl)thio]-5-(phenylmethoxy)benzo[b]thiophene-2-carboxamide]: the inhibition at 33 µM was 24%.
The same measure, in the same setting: the figure for `COc1ccc2sc(C(N)=O)c(S(=O)(=O)C(C)C)c2c1` [Example 3, 5-Methoxy-3-[(1-methylethyl)sulfonyl]benzo[b]thiophene-2-carboxamide] is 32%.
On the same count and under the same terms, the figure for `COC(=O)CCCCSc1c(C(N)=O)sc2ccc(OC)cc12` [Example 13] is 21%; for `COc1ccc2sc(C(=O)Nc3ccc(C(=O)O)cc3)c(SC(C)C)c2c1` [Example 8, 4-[[[5-Methoxy-3[(1-methylethyl)thio]benzo[b]thien-2yl]carbonyl]amino]benzoic acid] it is 13%.
In the case of `COc1ccc2c(c1)c(Nc1ccccc1)c(C(N)=O)[s+]2[O-]` (stereo not shown) [Example 24, 5-Methoxy-3-(phenylamino)benzo[b]thiophene-2-carboxamide-1-oxide], the inhibition at 100 µM was 21%.
Regarding `COc1cccc2sc(C(N)=O)c(N)c12` [Example 19, 3-Amino-4-methoxybenzo[b]thiophene-2-carboxamide], the inhibition at 33 µM was 30%.
For `CNc1c(C(N)=O)[s+]([O-])c2ccc(OC)cc12` (stereo not shown) [Example 22, 5-Methoxy-3-(methylamino)benzo[b]thiophene-2-carboxamide-1-oxide], the inhibition at 100 µM was 16%.
Regarding `NC(=O)c1oc2cccc(Cl)c2c1N` [Example 26, 3-Amino-4-chloro-2-benzofurancarboxamide], the inhibition at 33 µM was 24%.
Same read-out and setting: then `COc1ccc2sc(C(N)=O)c(SCc3ccccc3)c2c1` [Example 6, 5-Methoxy-3-[(phenylmethyl)thio]benzo[b]thiophene-2-carboxamide], with 35%.
Still for that read-out and setting: the figure for `CSc1ccc2sc(C(N)=O)c(N(C)C)c2c1` [Example 21, 3-Dimethylamino-5-(methylthio)benzo[b]thiophene-2-carboxamide] is 53%; for `NC(=O)c1oc2ccccc2c1N` [Example 25, 3-Amino-2-benzofurancarboxamide] it is 21%.
Turning to `CC(C)Oc1c(C(N)=O)oc2ccc(-c3ccccc3)cc12` [Example 37, 3-(1-Methylethoxy)-5-phenyl-2-benzofurancarboxamide], the inhibition at 100 µM was 68%.
The same measure, in the same setting: the figure for `CC(C)Oc1c(C(N)=O)oc2ccc(Cl)cc12` [Example 28, 5-Chloro-3-(1-methylethoxy)-2-benzofurancarboxamide] is 52%; for `CC(C)Oc1c(C(=O)Nc2ccccc2)oc2ccc(Cl)cc12` [Example 31, 5-Chloro-3-(1-methylethoxy)-N-phenyl-2-benzofurancarboxamide] it is 11%.
In the case of `CC(C)Oc1c(C(N)=O)oc2ccc(O)cc12` [Example 38, 5-Hydroxy-3-(1-methylethoxy)-2-benzofurancarboxamide], the inhibition at 33 µM is 67%.
For `COc1ccc2c(c1)c(NC(C)C)c(C(N)=O)[s+]2[O-]` (stereo not shown) [Example 23, 5-Methoxy-3-[(1-methylethyl)amino]benzo[b]thiophene-2-carboxamide-1-oxide], the inhibition at 100 µM was 7%.
With `COC(=O)c1ccc(NC(=O)c2sc3ccc(OC)cc3c2SC(C)C)cc1` [Example 7, Methyl 4-[[[5-methoxy-3-[(1-methylethyl)thio]benzo[b]thien-2yl]carbonyl]amino]benzoate], the inhibition at 33 µM is 19%.
Consider `CC(C)Oc1c(C(N)=O)oc2ccccc12` [Example 29, 3-(1-Methylethoxy)-2-benzofurancarboxamide], for which the inhibition at 100 µM was 20%.
Consider `CN(C)c1c(C(N)=O)sc2cccc(Cl)c12` [Example 18, 4-Chloro-3-(dimethylamino)benzo[b]thiophene-2-carboxamide], for which the inhibition at 33 µM was 10%.
`COc1ccc2sc(C(N)=O)c(SCCN3CCOCC3)c2c1` [Example 11, 5-Methoxy-3-[[2-(4-morpholinyl)ethyl]thio]benzo[b]thiophene-2-carboxamide]: the inhibition at 33 µM is 27%.
On to `COc1ccc2sc(C(N)=O)c(SCCCCC(=O)O)c2c1` [Example 14], for which the inhibition at 33 µM is 37%.
Regarding `CC(C)Oc1c(C(=O)Nc2ccccc2)oc2ccccc12` [Example 34, 3-(1-Methylethoxy)-N-phenyl-2-benzofurancarboxamide], the inhibition at 100 µM is 70%.
As for `COc1ccc2sc(C(N)=O)c(S)c2c1` [Example 9, 3-Mercapto-5-methoxybenzo[b]thiophene-2-carboxamide], the inhibition at 33 µM is 15%.
On the same count and under the same terms, then `COc1ccc2sc(C(N)=O)c(SCC(=O)O)c2c1` [Example 15, [[2-(Aminocarbonyl)-5-methoxybenzo[b]thien-3-yl]thio]acetic acid], with 7%; and `CC(C)Sc1c(C(N)=O)sc2cccc(Cl)c12` [Example 12, 4-Chloro-3-[(1-methylethyl)thio]benzo[b]thiophene-2-carboxamide], with 34%.
Regarding `COC(=O)CCSc1c(C(N)=O)sc2ccc(OC)cc12` [Example 10, Methyl 3-[[2-(aminocarbonyl)-5-methoxybenzo[b]thien-3-yl]thio]propanoate], the inhibition at 33 µM was 55%.
For `COC(=O)c1ccc(CSc2c(C(N)=O)sc3ccc(OC)cc23)cc1` [Example 16, Methyl 4-[[[2-(aminocarbonyl)-5-methoxybenzo[b]thien-3-yl]thio]methyl]benzoate], the inhibition at 33 µM was 10%.
As for `CC(C)Oc1c(C(=O)NCc2ccccc2)oc2ccc(Cl)cc12` [Example 32, 5-Chloro-3-(1-methylethoxy)-N-(phenylmethyl)-2-benzofurancarboxamide], the inhibition at 100 µM was 95%.
Take `COc1cccc2sc(C(N)=O)c(N(C)C)c12` [Example 20, 3-(Dimethylamino)-4-methoxybenzo[b]thiophene-2carboxamide]: the inhibition at 33 µM was 63%.
Consider `CC(C)Oc1c(C(=O)NCc2ccccc2)oc2ccccc12` [Example 35, 3-(1-Methylethoxy)-N-(phenylmethyl)-2-benzofurancarboxamide], for which the inhibition at 100 µM was 61%.
One may read the IC50 as the concentration that gives 50% inhibition. On to `COc1ccc2oc(C(N)=O)c(OC(C)C)c2c1` [Example 27, 5-Methoxy-3-(1-methylethoxy)-2-benzofurancarboxamide], for which the IC50 (footnote a, neutrophil label not given, IC50 by linear regression from 33.3, 10.0, 3.3 and 1.0 μM, read-out: Adhesion ECA, IC50) was 13 µM.
For the compound `COc1ccc2oc(C(N)=O)c(OCc3ccccc3)c2c1` [Example 36, 5-Methoxy-3-(phenylmethoxy)-2-benzofurancarboxamide], the inhibition at 100 µM was 4%.
Regarding `COc1ccc2oc(C(=O)NCc3ccccc3)c(OC(C)C)c2c1` [Example 30, 5-Methoxy-3-(1-methylethoxy)-N-(phenylmethyl)-2-benzofurancarboxamide], the inhibition at 100 µM is 42%.
With `CC(C)NC(=O)c1oc2ccccc2c1OC(C)C` [Example 33, 3-(1-Methylethoxy)-N-(1-methylethyl)-2-benzofurancarboxamide], the inhibition at 100 µM is 15%.
